Entries after “also recorded” stand apart in the source; their conditions may differ.
How the values were obtained:
TglHI = type: biochemical, Pseudomonas syringae pv. maculicola ES4326
Protocol: TglHI protein and H2O2 (or EDTA) were initially incubated together for 10 min, and then protein was purified by size exclusion chromatography to remove excess H2O2 (or EDTA). The reaction between the H2O2 (EDTA)-treated TglHI and minimum substrate analog of TglA-Cys, β-NAD^+, and FDH was then monitored for the levels of NADH.
(A) In vitro activity assay of the modification of the minimum substrate analog of TglA-Cys by TglHI with treatment of H2O2 in the presence of formate dehydrogenase (FDH) and β-NAD+. NADH formation was […]
(B) In vitro activity assay of the modification of the minimum substrate analog of TglA-Cys by TglHI with […]
treatment of EDTA (5 mM, 10 mM, 20 mM).

[1] = target: TglHI holoenzyme (Pseudomonas syringae pv. maculicola ES4326); test: ITC
[2] = Solubility on (co-)expression in E. coli, SDS-PAGE; type: physicochemical; conditions: expression in E. coli BL21, SDS-PAGE
Protocol: The tglH (NCBI accession No. WP_007252215.1) and tglI (NCBI accession No. WP_007252216.1) genes from Pseudomonas syringae pv. maculicola (P. syringae) ES4326 were codon-optimized for expression in E. coli (the optimized sequences are provided in KRT) and subcloned into the pRSFDuet-1 vector. E. coli BL21 (DE3) cells containing the tglHI-pRSFDuet-1 plasmid were grown in Luria broth (LB) medium at 37 °C and 220 rpm to an optical density at 600 nm (OD600) of 0.6. Fe-containing TglHI proteins were obtained by the addition of 1 mM (NH4)2Fe(SO4)2 in LB medium. Subsequently, cultures were induced at 16 °C with the addition of isopropyl β-D-thiogalactoside (IPTG) at a final concentration of 0.2 mM. […] After cell lysis, lysates were centrifuged at 18000 rpm for 30 min to obtain the supernatant containing the target protein. […] The purity of the purified proteins was assessed using sodium dodecyl sulfate‒polyacrylamide gel electrophoresis (SDS‒PAGE) and they were flash-frozen with liquid nitrogen for subsequent crystallization and biochemical analysis. […]
(B) The tglH and tglI genes were inserted into the pRSF-DuET-1 vector for co-expression, and the complexes were purified through nickel affinity columns. […] The proteins were then eluted and analyzed by SDS-PAGE. […]

O=C(O)CN(CCN(CC(=O)O)CC(=O)O)CC(=O)O [EDTA]
TglHI activity after treatment with EDTA (TglHI; EDTA 5 mM, 10 mM, 20 mM, 10 min incubation, then size exclusion chromatography): merely attenuated the enzymatic activity of TglHI instead of abolishing the activity | effect of higher EDTA concentrations on TglHI (TglHI; higher concentrations than 5, 10, 20 mM): precipitation

OO [H2O2]
TglHI activity after pretreatment with H2O2 (TglHI; 10 min incubation, then size exclusion chromatography, NADH at 340 nm): background; also recorded: loss of TglHI activity

TglA-Cys analog containing the C-terminal 19 amino acids (peptide)
Kd [1]: 8.5 µM

B1: TglH: Fe-dependent DUF692 catalytic subunit (protein)
chain: MPDFVKPAPIGVGIQYNPEILDWFPFEDIQVDILEILLDNIMAPMDGPQIIKPSAQAMIERLGQKFTLLAHSNYGCDFGFSALEETAAVQRHVPLAKMLNSPWVANHCFYGDQSWLDIWSSPIQFSAAEVARCADRAQSLQTLYGMPLAHENAAYYLECPGAEMREAEFLARLVQRSGTFLHLDLHNIYTNHLNLKGFDLKDYMDTLPLDKVISVHLAGGSWHGGLYHDWHDACVPEPVWDLYEDLLSRAQPSAVILEYQGQAHHAQTRIMDASDESMIVRDVQRAQAIWSRYNRHPQERQYGS
solubility of protein / complex [2]: expressed partially in soluble form

B2: TglI: recruitment subunit with RRE domain (protein)
chain: MEAEQVWKLWRRVLRDERLQAQLFSATDATHWLSGFSESESKILSVYAQQFDRVKWFVENYQFRLVNSFLNALETGAPLSLRALLHINVDLNAQSKAFLRDRQWRDYGPQVYTYCEDVLGFLAEADELQGYPEILDLMRLERESVRLYRGLVDPESLPADNRYQRTSMARLYETRFALSGWLRQKDQLGLTRLPESTEHVLIYLPTLQARHKFTLINAQAARLYNCLEQPQSAAGLFMLINSDSASVPGSADLALLDRLEQLNAIRKPL
solubility of protein / complex [2]: insoluble when expressed alone and only soluble when co-expressed with TglH

Source: article PMC10880893, “Structures of the holoenzyme TglHI required for 3-thiaglutamate biosynthesis” (Structure (London, England : 1993), 2023)
